Measured values: patent publication US20210255193A1, “LYSINE REACTIVE PROBES AND USES THEREOF” (The Scripps Research Institute, priority 2017, published 2021)

Key:
Test in all cases: competitive isoTOP-ABPP
Format in all cases: binding
[1] = target: T1, PSME3 Proteasome activator complex subunit 3 (Homo sapiens, UniProt P61289); set-up: key to isoTOP-ABPP reactivity ratio at lysine P61289_K237: R = MS1 peak area ratio, DMSO (heavy) / compound-treated (light); key to isoTOP-ABPP reactivity ratio at lysine P61289_K12: R = MS1 peak area ratio, DMSO (heavy) / compound-treated (light); capped at 20; conditions: 50 uM, in vitro; for R value (DMSO/fragment) for probe 1 labeling / isoTOP-ABPP reactivity ratio at lysine P61289_K12 / isoTOP-ABPP reactivity ratio at lysine P61289_K237: 231 sol
T1 construct: isoTOP-ABPP experiments performed in cell lysates (in vitro); endogenous in cells; host or cells: soluble proteome of human cancer cell lines (MDA-MB-231, Ramos, Jurkat)
T1 sequence (P61289 whole entry, the tested form may be a part, one chain of several): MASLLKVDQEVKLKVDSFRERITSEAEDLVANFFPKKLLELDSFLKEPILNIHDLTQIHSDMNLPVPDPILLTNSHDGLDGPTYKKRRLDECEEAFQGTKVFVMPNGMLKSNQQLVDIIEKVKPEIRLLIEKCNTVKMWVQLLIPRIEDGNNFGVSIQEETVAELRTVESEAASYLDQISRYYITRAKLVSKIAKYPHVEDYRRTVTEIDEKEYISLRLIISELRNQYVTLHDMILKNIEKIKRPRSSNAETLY
Procedure: (§1) In vitro covalent fragment treatment for isoTOP-ABPP. All compounds were made up as solutions in DMSO (100×) and were used at a final concentration of 50 μM for activated esters and 100 μM for guanidinylating agents. For each profiling sample, 0.5 ml of lysate was treated with 5 μl of the 100× compound stock solution or 5 μl of DMSO. Samples were treated with activated esters for
(§2) STP-alkyne labeling and click chemistry. For concentration-dependent reactivity measurements by isoTOP-ABPP, 0.5 ml proteome aliquots were treated at ambient temperature with 1 mM STP-alkyne 1 (5 μl of 100 mM stock in DMSO) and 0.1 mM STP alkyne 1 (5 μl of 10 mM stock in DMSO), respectively. For competitive isoTOP-ABPP, after in vitro fragment treatment (detailed above), the samples were labeled for 1 h at ambient temperature with 0.1 mM STP-alkyne 1 (5 μl of 10 mM stock in DMSO). Samples were conjugated by copper-mediated azide-alkyne cycloaddition (CuAAC) to either the light (1 mM STP-alkyne or fragment treated) or heavy (0.1 mM STP-alkyne or DMSO treated) TEV tags (10 μl of 5 mM stocks in DMSO, final concentration=100 μM) using tris(2-carboxyethyl)phosphine hydrochloride
(§3) R value calculation and processing. The ratios of light and heavy MS1 peaks for each unique peptide were quantified with a CIMAGE software using default parameters (3 MS1 acquisitions per peak and signal to noise threshold set to 2.5). For reactivity measurements by isoTOP-ABPP, the R value was calculated from the ratio of MS1 peak areas, comparing the 1 mM STP alkyne sample (light TEV tag) with the 0.1 mM STP alkyne sample (heavy TEV tag). For competitive isoTOP-ABPP, the R value was calculated from the ratio of MS1 peak areas, comparing the DMSO treated sample (heavy TEV tag) with the compound treated sample (light TEV tag). […] Ratios for unique peptide entries are calculated for each experiment; overlapping peptides with the same modified lysine (for example, different charge states, MudPIT chromatographic steps or tryptic termini) are grouped together and the median ratio is reported as the final ratio (R). The peptide ratios reported by CIMAGE were further filtered to ensure the removal or correction of low-quality ratios in each individual data set. The quality filters applied were the following: removal of half tryptic peptides; for ratios with high standard deviations from the median (90% of the median or above) the lowest ratio was taken instead of the median; removal of peptides with R=20 and only a single MS2 event triggered during the elution of the parent ion; manual annotation of all the peptides with ratios of 20, removing any peptides with low quality elution profiles that remained after the previous curation steps (only done for competitive isoTOP-ABPP).
(§4) Cross-data processing for fragment screening. For compound treated samples, biological replicates of the same condition were averaged, if the standard deviation was below 60% of the mean; otherwise, for lysines with at least one R value <4 for a particular compound, the lowest value of the ratio set was taken. For lysines, where all R values for a particular compound were ≥4, the average was reported. For peptides containing several possible modified lysines, the lysine with the highest number of quantification events was used for analysis and the remaining, redundant peptides were reported as alternative modification sites. Peptides included in the aggregate dataset (those used for further bioinformatics and statistical analyses) were required to have been quantified in 2 experiments for competitive isoTOP-ABPP. Lysines were categorized as liganded, if they had at least one ratio R≥4 (hit fragments). For liganded lysines with R=20 for all liganding events, lysines were required to have been quantified with R=20 in two separate experiments and were further required to have been quantified with R<20 in one additional experiment.

ADK Adenosine kinase = target: T2, ADK Adenosine kinase (Homo sapiens, UniProt P55263); set-up: key to isoTOP-ABPP reactivity ratio at lysine P55263_K88: R = MS1 peak area ratio, DMSO (heavy) / compound-treated (light); conditions: for R value (DMSO/fragment) for probe 1 labeling: P55263_K88; for R value (DMSO/fragment) for probe 1 labeling / isoTOP-ABPP reactivity ratio at lysine P55263_K88 / isoTOP-ABPP ratio (R) at liganded lysine P55263_K88: 50 uM, in vitro; for R value (DMSO/fragment) for probe 1 labeling / isoTOP-ABPP reactivity ratio at lysine P55263_K88: 231 sol; for isoTOP-ABPP ratio (R) at liganded lysine P55263_K88: sol, 231
T2 construct: isoTOP-ABPP experiments performed in cell lysates (in vitro); endogenous in cells; host or cells: soluble proteome of human cancer cell lines (MDA-MB-231, Ramos, Jurkat)
T2 sequence (P55263 whole entry, the tested form may be a part): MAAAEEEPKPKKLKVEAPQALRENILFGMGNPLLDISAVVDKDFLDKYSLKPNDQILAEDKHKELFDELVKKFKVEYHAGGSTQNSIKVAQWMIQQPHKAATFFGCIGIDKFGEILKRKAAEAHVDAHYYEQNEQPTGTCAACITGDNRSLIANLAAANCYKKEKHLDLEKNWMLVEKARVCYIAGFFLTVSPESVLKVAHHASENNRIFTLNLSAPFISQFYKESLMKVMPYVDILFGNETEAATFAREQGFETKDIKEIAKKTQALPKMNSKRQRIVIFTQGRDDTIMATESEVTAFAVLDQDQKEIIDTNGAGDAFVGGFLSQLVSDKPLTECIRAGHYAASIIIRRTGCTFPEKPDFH
Procedure: as §1, §2, §3, §4

[2] = target: T3, PNPO Pyridoxine-5-phosphate oxidase (Homo sapiens, UniProt Q9NVS9); conditions: for blockade of probe 1 labeling of K100: PNPO K100; for R value (DMSO/fragment) for probe 1 labeling: Q9NVS9_K100; for R value (DMSO/fragment) for probe 1 labeling / isoTOP-ABPP reactivity ratio at lysine Q9NVS9_K100 / isoTOP-ABPP ratio (R) at liganded lysine Q9NVS9_K100: 50 uM, in vitro; for R value (DMSO/fragment) for probe 1 labeling / isoTOP-ABPP reactivity ratio at lysine Q9NVS9_K100: 231 sol; for isoTOP-ABPP ratio (R) at liganded lysine Q9NVS9_K100: sol, 231
T3 construct: endogenous in cells; host or cells: MDA-MB-231 (soluble fraction of lysate)
T3 sequence (Q9NVS9 1-261): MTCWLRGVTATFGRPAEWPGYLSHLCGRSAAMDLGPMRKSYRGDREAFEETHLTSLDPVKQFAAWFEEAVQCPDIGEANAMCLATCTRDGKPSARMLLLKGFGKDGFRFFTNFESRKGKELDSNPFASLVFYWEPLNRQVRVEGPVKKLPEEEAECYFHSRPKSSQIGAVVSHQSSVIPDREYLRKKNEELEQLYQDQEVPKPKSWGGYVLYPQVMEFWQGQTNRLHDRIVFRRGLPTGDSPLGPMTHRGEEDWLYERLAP
How it was run: (§5)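 Cell lysate treated in vitro with fragments (50 μM activated esters, 100 μM guanidinylating agents) or DMSO, labelled 1 h at ambient temperature with 0.1 mM STP-alkyne, CuAAC-tagged with light/heavy TEV tags, analysed by MS. R = DMSO/compound MS1 peak-area ratio; lysines with R≥4 called liganded.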

[3] = target: T4, NPEPPS Puromycin-sensitive aminopeptidase (Homo sapiens, UniProt P55786); conditions: for R value (DMSO/fragment) for probe 1 labeling: P55786_K712; for R value (DMSO/fragment) for probe 1 labeling / isoTOP-ABPP reactivity ratio at lysine P55786_K712 / isoTOP-ABPP ratio (R) at liganded lysine P55786_K712: 50 uM, in vitro; for R value (DMSO/fragment) for probe 1 labeling / isoTOP-ABPP reactivity ratio at lysine P55786_K712: 231 sol; for isoTOP-ABPP ratio (R) at liganded lysine P55786_K712: sol, 231
T4 construct: isoTOP-ABPP experiments performed in cell lysates (in vitro); endogenous in cells; host or cells: soluble proteome of human cancer cell lines (MDA-MB-231, Ramos, Jurkat)
T4 sequence (P55786 whole entry, the tested form may be a part): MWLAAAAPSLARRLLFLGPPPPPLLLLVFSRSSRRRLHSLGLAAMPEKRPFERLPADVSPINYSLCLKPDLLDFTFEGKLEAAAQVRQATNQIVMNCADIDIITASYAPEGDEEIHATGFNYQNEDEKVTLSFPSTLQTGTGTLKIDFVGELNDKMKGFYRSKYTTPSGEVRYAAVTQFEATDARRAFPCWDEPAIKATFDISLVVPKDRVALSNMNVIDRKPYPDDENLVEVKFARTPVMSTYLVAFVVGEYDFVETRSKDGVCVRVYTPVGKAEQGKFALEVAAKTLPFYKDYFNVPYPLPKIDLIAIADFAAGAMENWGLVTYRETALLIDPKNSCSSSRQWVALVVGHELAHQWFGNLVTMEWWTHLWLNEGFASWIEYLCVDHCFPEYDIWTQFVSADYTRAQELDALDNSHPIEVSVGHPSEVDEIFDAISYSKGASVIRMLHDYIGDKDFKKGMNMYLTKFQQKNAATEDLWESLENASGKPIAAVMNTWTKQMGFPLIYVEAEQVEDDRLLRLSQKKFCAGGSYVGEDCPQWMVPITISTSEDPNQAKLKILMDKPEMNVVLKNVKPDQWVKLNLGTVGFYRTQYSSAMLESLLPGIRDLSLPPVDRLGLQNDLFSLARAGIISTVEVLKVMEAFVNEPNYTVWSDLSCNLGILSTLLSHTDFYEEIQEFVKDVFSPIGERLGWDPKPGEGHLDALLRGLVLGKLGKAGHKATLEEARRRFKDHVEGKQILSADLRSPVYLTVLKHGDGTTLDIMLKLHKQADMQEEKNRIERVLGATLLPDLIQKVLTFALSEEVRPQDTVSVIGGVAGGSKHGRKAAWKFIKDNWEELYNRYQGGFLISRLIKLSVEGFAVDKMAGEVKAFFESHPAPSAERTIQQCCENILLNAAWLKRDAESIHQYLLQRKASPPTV
How it was run: as §5

[4] = target: T5, DYNC1H1 Cytoplasmic dynein 1 heavy chain 1 (Homo sapiens, UniProt Q14204); conditions: 50 uM, in vitro; for R value (DMSO/fragment) for probe 1 labeling: Q14204_K1649; for R value (DMSO/fragment) for probe 1 labeling / isoTOP-ABPP reactivity ratio at lysine Q14204_K1649: 231 sol
T5 construct: isoTOP-ABPP experiments performed in cell lysates (in vitro); endogenous in cells; host or cells: soluble proteome of human cancer cell lines (MDA-MB-231, Ramos, Jurkat)
How it was run: as §5

Row | SMILES | isoTOP-ABPP reactivity ratio at lysine P61289_K12 [1] | isoTOP-ABPP reactivity ratio at lysine P61289_K237 [1] | isoTOP-ABPP reactivity ratio at lysine P55263_K88 (ADK Adenosine kinase) | isoTOP-ABPP reactivity ratio at lysine Q9NVS9_K100 [2] | isoTOP-ABPP reactivity ratio at lysine P55786_K712 [3] | isoTOP-ABPP reactivity ratio at lysine Q14204_K1649 [4] | further results
1 | O=C(CCc1cn(-c2ccccc2)nc1-c1ccccc1)Oc1c(F)c(F)c(F)c(F)c1F [fragment 19, Pentafluorophenyl 3-(1,3-diphenyl-1H-pyrazol-4-yl)propanoate] | – | – | – | – | – | – | R value (DMSO/fragment) for probe 1 labeling ([1]; P61289_K12): 1.0; R value (DMSO/fragment) for probe 1 labeling ([1]; P61289_K237): 0.2; R value (DMSO/fragment) for probe 1 labeling (ADK Adenosine kinase): 0.8; blockade of probe 1 labeling of K100 [2]: fully blocking probe 1 labeling; R value (DMSO/fragment) for probe 1 labeling [2]: 20.0; R value (DMSO/fragment) for probe 1 labeling [3]: 1.0; R value (DMSO/fragment) for probe 1 labeling [4]: 1.0
2 | Cn1cc(CC(=O)Oc2c(F)c(F)c(F)c(F)c2F)c2ccccc21 [fragment 22, Pentafluorophenyl 2-(1-methyl-1H-indol-3-yl)acetate] | – | – | – | – | – | – | R value (DMSO/fragment) for probe 1 labeling ([1]; P61289_K12): 0.9; R value (DMSO/fragment) for probe 1 labeling ([1]; P61289_K237): 1.1; R value (DMSO/fragment) for probe 1 labeling (ADK Adenosine kinase): 1.0; blockade of probe 1 labeling of K100 [2]: fully blocking probe 1 labeling; R value (DMSO/fragment) for probe 1 labeling [2]: 20.0; R value (DMSO/fragment) for probe 1 labeling [3]: 1.3; R value (DMSO/fragment) for probe 1 labeling [4]: 1.1
3 | COc1cc(CCC(=O)Oc2c(F)c(F)c(F)c(F)c2F)cc(OC)c1OC [fragment 23, Pentafluorophenyl 3-(3,4,5-trimethoxyphenyl)propanoate] | – | – | – | – | – | – | R value (DMSO/fragment) for probe 1 labeling ([1]; P61289_K237): 0.5; R value (DMSO/fragment) for probe 1 labeling (ADK Adenosine kinase): 0.7; R value (DMSO/fragment) for probe 1 labeling [2]: 1.8; R value (DMSO/fragment) for probe 1 labeling [3]: 1.2; R value (DMSO/fragment) for probe 1 labeling [4]: 1.7
4 | O=C(Oc1c(F)c(F)c(F)c(F)c1F)c1ccc2ccccc2n1 [fragment 25, Pentafluorophenyl quinoline-2-carboxylate] | 0.9 | 0.5 | 0.8 | 1.0 | 1.1 | 1.7 | –
5 | O=C(CCc1coc2cc(F)ccc2c1=O)Oc1c(F)c(F)c(F)c(F)c1F [fragment 26, Pentafluorophenyl 3-(7-fluoro-4-oxo-4H-chromen-3-yl)propanoate] | 0.9 | 1.1 | 0.9 | 1.4 | 1.2 | – | –
6 | O=C(CN1C(=O)c2ccccc2C1=O)Oc1c(F)c(F)c(F)c(F)c1F [fragment 27, Pentafluorophenyl 2-(1,3-dioxoisoindolin-2-yl)acetate] | – | 0.8 | 0.8 | 1.0 | 1.2 | 4.2 | –
7 | CCn1cc(C(=O)Oc2c(F)c(F)c(F)c(F)c2F)c(=O)c2ccc(C)nc21 [fragment 28, Pentafluorophenyl 1-ethyl-7-methyl-4-oxo-1,4-dihydro-1,8-naphthyridine-3-carboxylate] | 1.0 | 0.6 | 0.8 | 0.9 | 1.0 | 1.0 | –
8 | O=C(CCc1cn(-c2ccccc2)nc1-c1ccccc1)Oc1ccc([N+](=O)[O-])cc1[N+](=O)[O-] [fragment 29, 2,4-Dinitrophenyl 3-(1,3-diphenyl-1H-pyrazol-4-yl)propanoate] | 1.1 | 0.4 | 1.0 | 1.9 | 1.1 | 1.1 | –
9 | O=C(Oc1ccc([N+](=O)[O-])cc1[N+](=O)[O-])C(c1ccccc1)c1ccccc1 [fragment 30, 2,4-Dinitrophenyl 2,2-diphenylacetate] | – | 4.3 | 0.8 | 1.0 | 1.5 | – | –
10 | O=C(Oc1ccc([N+](=O)[O-])cc1[N+](=O)[O-])C1CCN(C(=O)OCc2ccccc2)CC1 [fragment 34, 1-Benzyl 4-(2,4-dinitrophenyl) piperidine-1,4-dicarboxylate] | – | – | – | – | – | – | isoTOP-ABPP ratio (R) at liganded lysine P61289_K12 ([1]; sol, 231): 1.4; isoTOP-ABPP ratio (R) at liganded lysine P55263_K88 (ADK Adenosine kinase): 20.0; isoTOP-ABPP ratio (R) at liganded lysine Q9NVS9_K100 [2]: 0.9; isoTOP-ABPP ratio (R) at liganded lysine P55786_K712 [3]: 11.0
11 | O=C(Oc1ccc([N+](=O)[O-])cc1[N+](=O)[O-])c1ccc2ccccc2n1 [fragment 35, 2,4-Dinitrophenyl quinoline-2-carboxylate] | – | – | – | – | – | – | isoTOP-ABPP ratio (R) at liganded lysine P61289_K12 ([1]; sol, 231): 0.7; isoTOP-ABPP ratio (R) at liganded lysine P61289_K237 ([1]; sol, 231): 0.8; isoTOP-ABPP ratio (R) at liganded lysine P55263_K88 (ADK Adenosine kinase): 0.6; isoTOP-ABPP ratio (R) at liganded lysine Q9NVS9_K100 [2]: 0.9; isoTOP-ABPP ratio (R) at liganded lysine P55786_K712 [3]: 1.3; isoTOP-ABPP ratio (R) at liganded lysine Q14204_K1649 ([4]; sol, 231): 1.0
12 | O=C(Oc1c(F)c(F)cc(F)c1F)c1cc(C(F)(F)F)cc(C(F)(F)F)c1 [fragment 48, 2,3,5,6-Tetrafluorophenyl 3,5-bis(trifluoromethyl)benzoate] | – | – | – | – | – | – | isoTOP-ABPP ratio, lysine P55263_K88 (ADK Adenosine kinase; 50 uM_231_sol_in vitro): 0.9; isoTOP-ABPP ratio, lysine Q9NVS9_K100 ([2]; 50 uM_231_sol_in vitro): 0.9; isoTOP-ABPP ratio, lysine P55786_K712 ([3]; 50 uM_231_sol_in vitro): 1.0
